From patent publication US5759785A, “Method of identifying hormone antagonists and agonists” (Baylor College of Medicine, priority 1995, dated 1998)

How the values were obtained:
ER = conditions: cited from earlier work
Human ER = biological target: T1, Human ER (Homo sapiens, UniProt P03372); test: Electrophoretic mobility shift assay, translated ER binding to an ERE; type: biochemical; conditions: 100 nM ligand; 10 mM MgCl2, 37° C.
T1 sequence (P03372 1-595): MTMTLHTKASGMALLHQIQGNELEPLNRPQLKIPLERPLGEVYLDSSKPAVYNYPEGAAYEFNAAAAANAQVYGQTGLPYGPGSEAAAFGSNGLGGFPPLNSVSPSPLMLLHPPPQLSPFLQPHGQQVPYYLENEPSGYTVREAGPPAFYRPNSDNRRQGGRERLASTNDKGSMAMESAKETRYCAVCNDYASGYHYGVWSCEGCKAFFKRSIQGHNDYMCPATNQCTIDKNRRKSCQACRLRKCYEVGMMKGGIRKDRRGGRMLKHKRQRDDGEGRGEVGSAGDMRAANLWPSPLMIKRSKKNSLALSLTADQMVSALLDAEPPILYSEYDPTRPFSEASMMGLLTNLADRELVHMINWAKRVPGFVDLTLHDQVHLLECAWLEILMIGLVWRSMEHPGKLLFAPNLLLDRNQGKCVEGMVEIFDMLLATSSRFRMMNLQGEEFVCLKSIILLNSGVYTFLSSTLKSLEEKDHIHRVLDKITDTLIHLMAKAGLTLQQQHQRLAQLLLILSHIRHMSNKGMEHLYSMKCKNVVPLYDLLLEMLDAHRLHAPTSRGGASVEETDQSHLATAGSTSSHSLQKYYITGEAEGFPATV
Experimental: (§1) EMSAs were carried out as previously described (Bagchi et al., Mol. Cell. Biol., 2:1221, 1988), except that 100 ng (PR) or 1 μg (ER) of Poly(dI-dC)(dI-dC) were used as competitor and 10 mM MgCl2 was used when testing estrogen receptor. 4 μl of unlabeled translation mix were used per 10 μl reaction. Proteins were incubated with ligand at room temperature (PR) or 37° C. (ER) for 10 minutes, followed by the addition of DNA and further incubation for 10 minutes. For the experiment in FIG. 2, all incubations were carried out at 30° C. in the presence of 300 U/ml calf intestinal alkaline phosphatase. All mixing was done by gentle vortexing. DNA-protein complexes were resolved on 4% (w/v) gels.

A-form human PR [1] = test: Limited proteolytic digestion of translated PR; type: biochemical; conditions: 100 nM ligand; for proteolytic fragment pattern / conformational change of PR: trypsin (Org compounds) or subtilisin (R5020); for protease-resistant PR fragment: chymotrypsin, trypsin or subtilisin digestion
Experimental: (§2) To 5 μl of hormone-treated (10 minutes at room temperature (PR) or 37° C. (ER)) labeled translation mix, 0.5 μl of protease (diluted in water) was added followed by incubation for 10 minutes. The rate of digestion is dependent on the concentration of enzyme used. ER translation mixes were made 10 mM in MgCl2 before hormone addition. 0.5 μl was removed and mixed with 10 μl of denaturing loading dye, boiled for 5 minutes, and immediately loaded on 1.5 mm thick 0.1% (w/v) sodium dodecyl sulphate-12% (w/v) polyacrylamide gels. Denaturing gel electrophoresis was performed as described in Promega's translation handbook. Following electrophoresis, gels were treated with 30% (v/v) methanol/10% (v/v) acetic acid, then with EN^3 HANCE, and were vacuum dried at 60° C. for 30 minutes, followed by 80° C. for 45 minutes. Autoradiography was performed overnight. Promega's rabbit reticulocyte lysates average a protein concentration of 130 mg/ml; 5 μg of protease per ml of translation mix is therefore roughly equivalent to 60 ng of protease per mg of protein.
Proteolytic analysis is a powerful method for analyzing conformation changes within proteins. [^35 S]methionine-labeled PR was treated with progesterone, Ru38486 or ethanol, then digested for a short period of time with different amounts of various proteases. Digestion products were analyzed by denaturing gel electrophoresis.

A-form human PR [2] = test: Electrophoretic mobility shift assay, in vitro translated PR binding to a PRE; type: biochemical; conditions: 100 nM ligand (progesterone also 10 nM)
Experimental: as §1
Hormone-dependent activity of the in vitro synthesized PR was measured, i.e., its ability to bind DNA specifically was examined by electrophoretic mobility shift assay (EMSA) (FIG. 1A). Unlabeled receptors were incubated with a ^32 P-end-labeled oligonucleotide equivalent to a PRE from the tyrosine aminotransferase gene upstream region.

hPR = biological target: T2, hPR (Homo sapiens, UniProt P06401); test: Bandshift analysis of T47D extract hPR with C-262 antibody supershift; type: biochemical; conditions: T47D extracts; 100 nM ligand
T2 sequence (P06401 1-933): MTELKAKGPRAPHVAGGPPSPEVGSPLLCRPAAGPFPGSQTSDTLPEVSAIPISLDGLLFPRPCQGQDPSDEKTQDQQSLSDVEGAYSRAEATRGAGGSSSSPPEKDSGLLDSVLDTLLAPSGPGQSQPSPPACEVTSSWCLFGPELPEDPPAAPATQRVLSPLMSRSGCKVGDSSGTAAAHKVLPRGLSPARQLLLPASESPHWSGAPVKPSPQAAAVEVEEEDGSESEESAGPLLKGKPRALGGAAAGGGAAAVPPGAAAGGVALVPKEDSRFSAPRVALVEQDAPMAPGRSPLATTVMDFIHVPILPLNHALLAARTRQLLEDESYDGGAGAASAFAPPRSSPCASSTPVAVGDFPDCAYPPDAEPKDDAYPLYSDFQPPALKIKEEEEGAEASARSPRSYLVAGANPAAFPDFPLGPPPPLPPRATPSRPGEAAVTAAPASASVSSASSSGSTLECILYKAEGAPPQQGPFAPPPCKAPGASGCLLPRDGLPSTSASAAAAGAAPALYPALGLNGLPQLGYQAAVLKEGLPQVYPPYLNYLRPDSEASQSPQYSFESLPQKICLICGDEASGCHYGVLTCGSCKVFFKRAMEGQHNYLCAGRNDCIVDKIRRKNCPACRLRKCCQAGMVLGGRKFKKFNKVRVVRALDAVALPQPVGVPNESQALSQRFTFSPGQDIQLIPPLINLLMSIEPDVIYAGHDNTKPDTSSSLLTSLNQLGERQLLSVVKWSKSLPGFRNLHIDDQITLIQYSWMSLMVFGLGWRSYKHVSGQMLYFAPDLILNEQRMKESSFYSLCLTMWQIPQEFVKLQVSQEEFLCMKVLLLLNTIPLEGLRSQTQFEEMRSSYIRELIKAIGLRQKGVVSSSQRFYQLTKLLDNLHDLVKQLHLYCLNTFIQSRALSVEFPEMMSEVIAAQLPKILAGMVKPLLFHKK
Experimental: In panel (A), T47D extracts were treated in vitro with 100 nM progesterone (P, lanes 2, 5, 8, 11 and 13), RU486 (R, lanes 3, 6 and 9) or with an equal amount (0.01% (v/v)) of ethanol carrier (-, lanes 1, 4, 7, 10, 12 and 14), followed by the addition of N-terminal-binding (AB52, lanes 7 to 9 and 14) or C-terminal-binding (C-262, lanes 4 to 13) anti-hPR monoclonal antibodies, or a control anti-cPR antibody (PR22, lanes 1 to 3). […] Binding to a PRE was assessed by bandshift analysis. The positions of specific DNA-protein complexes and of free probe are indicated. (B) The effect of ligands on C-262 supershifting was tested as in (A), except that extracts were treated with 100 nM Org31376 (OI, lanes 3, 7 and 11), Org31806 (OII, lanes 4, 8 and 12) or progesterone (P, lanes 2, 6 and 10).
A monoclonal antibody (C-262), which was raised against the C-terminal 14 amino acids of PR was used to determine if there was a difference in the accessibility of the epitope when the receptor was bound to an agonist or an antagonist.
The epitope recognized by C-262 antibody was the C-terminus of the receptor. A peptide corresponding to the C-terminal 14 amino acid tail was preincubated with the antibody prior to addition to the band-shift reaction.

progesterone action = conditions: cited from earlier work
[3] = tested on: retinoic acid receptor (RAR); test: Trypsin digestion of translated RAR; type: biochemical; conditions: preincubated with 2 μM retinoic acid
Experimental: as §2
(§3) The receptors were translated as a polypeptides of predicted molecular weight (FIG. 7A and 7B, lane 1). Trypsin digestion of RAR and TR which had been preincubated with 2 μM retinoic acid and 10^-T MT3 produced a resistant 31 kd fragment, which was not detectable following digestion of carrier-treated receptor (compare lanes 2-6 with lanes 8-12). […]

thyroxine receptor (TR) = test: Trypsin digestion of translated TR; type: biochemical; conditions: preincubated with 10^-T MT3
Experimental: as §2, §3

Compound: CCCCN(C)C(=O)CCCCCCCCCC[C@@H]1Cc2cc(O)ccc2[C@H]2CC[C@]3(C)[C@@H](O)CC[C@H]3[C@H]12 [ICI 164,384]
- agonistic activity (ER): no detectable agonistic activity
- binding of translated ER to an ERE (EMSA) (Human ER): induces high affinity DNA binding

Compound: C[C@H]1CC2=CC(=O)CCC2=C2[C@@H]1[C@@H]1CC[C@@]3(CCCO3)[C@@]1(C)C[C@@H]2c1ccc(N(C)C)cc1 [Org 31806]
- proteolytic fragment pattern / conformational change of PR (A-form human PR [1]): indistinguishable from that induced by Ru38486
- binding of translated PR to a PRE (specific DNA-protein complex, EMSA) (A-form human PR [2]): induce binding of translated PR to a PRE in vitro
- recognition (supershift) of ligand-bound hPR-DNA complex by C-262 antibody (hPR): resulted in supershifting of PR-DNA complexes
- antagonism of progesterone action in vivo (progesterone action): strongly antagonize progesterone action in vivo

Compound: CCC(=O)[C@@]1(C)CC[C@H]2[C@@H]3CCC4=CC(=O)CCC4=C3CC[C@@]21C [R5020]
- proteolytic fragment pattern / conformational change of PR (A-form human PR [1]): R5020 and progesterone induced the same conformational changes

Compound: CC#C[C@]1(O)CC[C@H]2[C@@H]3CCC4=CC(=O)CCC4=C3[C@@H](c3ccc(N(C)C)cc3)C[C@@]21C [Ru38486]
- protease-resistant PR fragment (A-form human PR [1]): 27 kd
- binding of translated PR to a PRE (specific DNA-protein complex, EMSA) (A-form human PR [2]): promoted binding to the PRE that was at least as strong as that induced by an equal concentration (100 nM) of progesterone
- recognition (supershift) of ligand-bound hPR-DNA complex by C-262 antibody (hPR): exposed

Compound: C[C@]12CC[C@@H]3c4ccc(O)cc4CC[C@H]3[C@@H]1CC[C@@H]2O [estradiol, 17β-estradiol]
- binding of translated PR to a PRE (specific DNA-protein complex, EMSA) (A-form human PR [2]): failed to induce a specific complex

Compound: CC(=O)[C@H]1CC[C@H]2[C@@H]3CCC4=CC(=O)CC[C@]4(C)[C@H]3CC[C@]12C [progesterone]
- protease-resistant PR fragment (A-form human PR [1]): 30 kd
- binding of translated PR to a PRE (specific DNA-protein complex, EMSA) (A-form human PR [2]): Specific DNA-protein complexes were obtained
- recognition (supershift) of ligand-bound hPR-DNA complex by C-262 antibody (hPR): almost totally prevented recognition of the receptor by C-262 antibody

Compound: CC1=C(/C=C/C(C)=C/C=C/C(C)=C/C(=O)O)C(C)(C)CCC1 [retinoic acid]
- trypsin-resistant RAR fragment [3]: 31 kd

Compound: thyroxine [T3]
- trypsin-resistant TR fragment (thyroxine receptor (TR)): 31 kd
